Usually MIC stands for the lowest concentration that inhibits growth of the organism.

From US4874856A, “3-(substituted)propenyl-7-(aminothiazolylacetamido) ceph-3-em-4-carboxylic acids and esters thereof” (Bristol-Myers Company, priority 1987, dated 1989) come the findings set out here.

The test system of assay [1] is PCresistant S. aureus. The assay is described as follows: In vitro MIC, two-fold serial agar dilution in Mueller-Hinton agar, GpIb strains. It counts as cell-based. The note with it: Staphylococcus aureus, 5 strains, read-out: Geometric mean of MIC, GpIb. How it is done:
(§1) The in vitro antibacterial activity of the parent cephalosporanic acids of Formula I wherein R^4 is hydrogen is shown in Table 1 in terms of geometric mean of the Minimum Inhibitory Concentrations (MIC's) which were determined by the two-fold serial agar dilution method in Mueller-Hinton agar against 25 strains of test organisms in five groups.
GpIb: PCresistant S. aureus
(In agar dilution, organisms are placed on agar that contains the substance at set levels.)

Assay [2] relates to Cephalothin(CET)sensitive E. coli (2 strains), K. pneumoniae (1) an P. mirabilis (2). Nature of the assay: In vitro MIC, two-fold serial agar dilution in Mueller-Hinton agar, GnIa strains. It counts as cell-based. Particulars: 5 strains, read-out: Geometric mean of MIC, GnIa. How it is done:
as §1
GnIa: Cephalothin(CET)sensitive E. coli (2 strains), K. pneumoniae (1) an […]

Values after ≈ are worked out from the molar mass of the structure shown.

Turning to `C/C=C\C1=C(C(=O)O)N2C(=O)[C@@H](NC(=O)/C(=N\O)c3csc(N)n3)[C@H]2SC1` [Compound 29, 7β-[(Z)-2-(2-aminothiazol-4-yl)-2-(hydroxyimino)acetamido]-3-[(Z)-prop-1-en-1-yl]-3-cephem-4-carboxylic acid], the minimal inhibitory concentration (MIC) in assay [1] came out at 0.4 µg/mL (≈ 0.977 µM); in assay [2] it was 0.066 µg/mL (≈ 0.161 µM).
